This data set is described as follows: Human HepG2 cell viability assay in 384 well format. In kind it is toxicity, cell-based. Further details: dose 125 nL, time 70.5 hour; cytotoxicity at 70.5 h: concentration not given beside the values. The following applies: HepG2 cells, read-out: Inhibition.

Each structure is given as a SMILES string.

Regarding `CC(Cn1ccnc1)NC(=O)Nc1ccccn1` (configuration not stated), the cytotoxicity at 70.5 h is 10.5%.
Consider `N#Cc1cn(C2CC2)c(=O)n(CC(O)c2ccc(Cl)cc2)c1=O` (configuration not stated), for which the cytotoxicity at 70.5 h is -3.7%.
For `Cc1cc(C)c(CNC(=O)N2CCN(c3nccs3)CC2)c(=O)[nH]1` the value was 14.3%.
The same measure for `Cc1cc(C)c(CNC(=O)N2CCN(c3ccccn3)CC2)c(=O)[nH]1`: 0.786%; for `CC(OCC1CC1)C(=O)Nc1ncn(CC(=O)N2CCCCCC2)n1` (configuration not stated): 10.7%; for `c1ncc2c(n1)CN(Cc1nc(-c3ccc4c(c3)OCO4)no1)CC2`: -4.3%.
The same measure for `c1ncc2c(n1)CN(Cc1nc(-c3ccoc3)no1)CC2`: -7.49%; for `CCn1ccnc1CN1CCN(CC(=O)NC(C2CC2)C2CC2)CC1`: 16.4%; for `CC(C)NC(=O)CCNC(=O)Nc1ccc(-n2cncn2)c(F)c1`: -11.5%.
On to `O=C(COC1CCCC1)Nc1ncn(CC(=O)N2CCCCCC2)n1`, for which the cytotoxicity at 70.5 h is -8.06%.
For the molecule `CCc1nc(CN2CCOC(CN(C)c3cccnn3)C2)cs1` (configuration not stated), the cytotoxicity at 70.5 h is -7.04%.
As to `Cc1ccccc1-c1noc(CN2CC(n3cccn3)C2)n1`, the cytotoxicity at 70.5 h was -5.02%.
For `CCOc1ccccc1-c1noc(CN2CCN(CCOC)CC2)n1` the value was -6.13%; for `CC(Cc1cccs1)C(=O)NCc1cccc(N2CCCC2=O)c1` (configuration not stated), -8.97%.
With `O=C(c1cccc2ncccc12)N1CCCN(c2cccnn2)CC1`, the cytotoxicity at 70.5 h is -11.1%.
The same measure for `Cc1cc(C)n(CC2CCCCN2CC(=O)N(C)Cc2ccco2)n1` (configuration not stated): 6.64%; for `CCc1nnc(CN2CCCN(C(=O)c3ccccn3)CC2)o1`: -10.8%; for `CCc1nc(C2CCCN2Cc2nc(Cc3ccccc3)no2)no1` (configuration not stated): -0.88%.
Take `Cc1ncc(CN2CCOC(CN(C)c3cccnn3)C2)s1` (configuration not stated): the cytotoxicity at 70.5 h was -9.59%.
For `CCc1noc(CN2CCN(C(=O)c3ccccn3)CC2)n1` the value was -7.01%; for `COc1ccc(Br)c(C(=O)N2CCCC(c3nc(C)no3)C2)c1` (configuration not stated), -9.43%; for `CC(=O)Nc1nc(C(=O)NC(C)c2ccc(F)c(F)c2)cs1` (configuration not stated), -7.42%.
As for `CNS(=O)(=O)c1ccc(CNC(=O)NCC2CCC2)cc1`, the cytotoxicity at 70.5 h is -8.5%.
On to `CC(=O)Nc1nc(C(=O)NC(C)c2ccc(C#N)cc2)cs1` (configuration not stated), for which the cytotoxicity at 70.5 h is -7.27%.
For `Cc1noc(C2CCCN(C(=O)c3cncc(Br)c3)C2)n1` (configuration not stated) the value was -10.8%.
For `CCC(O)CN(CC(=O)NC(=O)NC1CC1)c1ccccc1` (configuration not stated) the value was -6.3%.
Consider `CCNC(=O)NC(=O)CN(CC(C)O)c1ccccc1` (configuration not stated), for which the cytotoxicity at 70.5 h was -7.42%.
For `CCOC(CC)C(=O)NCc1cccc(N2CCCCC2=O)c1` (configuration not stated) the value was -6.54%; for `O=c1n(CCSCc2ccccc2Cl)nc2ccccn12`, -6.77%; for `Cc1ccc(CSCCn2nc3ccccn3c2=O)cc1`, -1.35%.
Consider `O=C(Cc1ccc2c(c1)CCO2)N1CCCC(n2cccn2)C1` (configuration not stated), for which the cytotoxicity at 70.5 h was -12.1%.
The same measure for `NS(=O)(=O)c1ccc(CC(=O)N2CCCC(n3cccn3)C2)cc1` (configuration not stated): -7.64%; for `Cc1noc(C2CCCN(C(=O)c3ccc(Cl)cc3F)C2)n1` (configuration not stated): -7.02%; for `O=C(Cc1cccc2cccnc12)N1CCCN(c2cccnn2)CC1`: -11%.
As to `Cc1nc2ccccc2nc1CN(C)C1CCCN(c2cccnn2)C1` (configuration not stated), the cytotoxicity at 70.5 h turned out to be 4.32%.
Take `CN(C)c1ncccc1C(=O)N1CCCN(c2cccnn2)CC1`: the cytotoxicity at 70.5 h was -6.59%.
The same measure for `O=C(c1cccnc1O)N1CCCN(c2cccnn2)CC1`: -9.98%.
As to `O=C(NCc1ccc(Br)cc1)NCC1CCOC1` (configuration not stated), the cytotoxicity at 70.5 h was -10.4%.
Turning to `CN(Cc1ncc(C(C)(C)C)o1)CC1CCCN1c1cccnn1` (configuration not stated), the cytotoxicity at 70.5 h came to 23.4%.
`Cc1cc(NC(=O)C(C)N2CCN(c3nc(C)ns3)CC2)on1` (configuration not stated): the cytotoxicity at 70.5 h is 4.54%.
The same measure for `CCc1nc(CN2CCCN(C(=O)COC(C)C)CC2)cs1`: 2.07%.
Regarding `CN(Cc1nnc(C2CC2)o1)CC1CCCN1c1cccnn1` (configuration not stated), the cytotoxicity at 70.5 h is -9.18%.
For `Cc1nc(CN2CCCN(C(=O)COCC3CC3)CC2)cs1`, the cytotoxicity at 70.5 h was -2.01%.
For `CCC1CCCN(CC(=O)Nc2oc(C)c3c(C)n[nH]c(=O)c23)C1` (configuration not stated) the value was -9.67%; for `COc1ccc(C(=O)N(C)Cc2cc(C)on2)c(OC)c1`, -4.71%; for `O=C(NCCn1nc2ccccn2c1=O)c1cc[nH]n1`, 0.216%.
For `O=C(NCCn1nc2ccccn2c1=O)c1cc(C2CC2)[nH]n1` the value was 2.27%.
Consider `Cn1cnnc1C1CCCN(C(=O)NCCc2ccccn2)C1` (configuration not stated), for which the cytotoxicity at 70.5 h was -4.27%.
The same measure for `Cn1cnnc1C1CCCN(C(=O)NCc2ccccc2)C1` (configuration not stated): 1.38%; for `CCn1cnnc1C1CCN(C(=O)CCCOc2ccccc2)CC1`: -3.85%; for `CCc1nc(CN2CCCN(C(=O)c3cc(C)on3)CC2)cs1`: -1.87%.
As for `Cc1ncsc1C(=O)N1CCC(Nc2cccnn2)CC1`, the cytotoxicity at 70.5 h is -7.04%.
With `CC(=O)Nc1nc(C(=O)N2CCC(Nc3cccnn3)CC2)cs1`, the cytotoxicity at 70.5 h is -2.92%.
The same measure for `O=C(CSc1ccc(F)cc1)NS(=O)(=O)c1ccc2c(c1)OCCO2`: 6.32%; for `CC(CC(=O)NS(=O)(=O)c1ccc2c(c1)OCCO2)c1ccc(F)cc1` (configuration not stated): -1.76%.
For `CCOC1CCN(CC(=O)Nc2oc(C)c3c(C)n[nH]c(=O)c23)CC1` the value was -4.42%.
For `CC(C)(C)c1cn2nc(N3CCCC(Cn4cncn4)C3)sc2n1` (configuration not stated) the value was -9.57%.
On to `O=C(CCN1CCN(c2ccc3nncn3n2)CC1)NC1CCCC1`, for which the cytotoxicity at 70.5 h is -5.28%.
The same measure for `CC(C)(C)c1cn2nc(N3CCCC3Cn3cccn3)sc2n1` (configuration not stated): 0.173%; for `CCCn1nc2c(cc1=O)CN(Cc1nnc(C3CC3)o1)CC2`: 10.1%; for `CC(c1nc(C2CC2)no1)N1CCN(Cc2ccccc2)CC1` (configuration not stated): -4.04%.
In the case of `c1cnc(-c2nc(CN3CCn4c(nnc4C4CC4)C3)cs2)nc1`, the cytotoxicity at 70.5 h was -9.61%.
Turning to `CC(c1nc(C2CC2)no1)N1CCN(Cc2cccc(F)c2F)CC1` (configuration not stated), the cytotoxicity at 70.5 h was -10.5%.
As to `Cc1ccc(-c2nc(CN3CCn4c(C)nnc4C3)cs2)o1`, the cytotoxicity at 70.5 h is -7.11%.
In the case of `c1ccc(-c2nc(CN3CCn4c(nnc4C4CC4)C3)cs2)cc1`, the cytotoxicity at 70.5 h was -11.8%.
For `CN(C)CC1CN(Cc2cccc(C(=O)N(C)C)c2)CCO1` (configuration not stated) the value was -1.2%; for `Cc1nc(C)n(CC2CCCCN2Cc2ncc(C(C)(C)C)o2)n1` (configuration not stated), 8%; for `CC(NC(=O)NCCNc1cnccn1)c1cccs1` (configuration not stated), -6.24%.
`COc1c(Br)cc(Br)cc1CNC(C)Cn1cccn1` (configuration not stated): the cytotoxicity at 70.5 h turned out to be 16.4%.
As for `c1cc2n(n1)CC(CNCc1ccc(OCC3CC3)nc1)CN2` (configuration not stated), the cytotoxicity at 70.5 h worked out at 1.11%.
For `CNS(=O)(=O)Cc1ccc(CNC(=O)c2ccc(C)[nH]c2=O)cc1`, the cytotoxicity at 70.5 h was -9.88%.
As to `CC(C)C(NC(=O)NCCNc1ccccn1)c1cccs1` (configuration not stated), the cytotoxicity at 70.5 h is -8.85%.

For the origin of these results see ChEMBL document CHEMBL3507680, “University of Dundee, Gates Library screen for HepG2 cell viability”.
